From US11286414B2, “Sodium nitroprusside and nitrate metabolic inhibition of sulfate-reducing microbes to control sulfide production” (UTI Limited Partnership, priority 2017, dated 2022)

What was measured:
4PW SRB consortia = experiment: Comparison of SNP with other biocides on souring; format: cell-based, SRB consortia enriched from 4PW; conditions: 10 ppm added at start of growth, one month
SRB consortia = experiment: Souring control in sand-packed bioreactors containing heavy oil; format: cell-based, SRB consortia from MHGC produced water (18PW)

For O=CCCCC=O [Glut, glutaraldehyde], the “metabolic activity and growth of SRB (sulfide, sulfate, lactate concentrations)” value (“metabolic activity and growth of SRB” below) (4PW SRB consortia) was “not effective at this low dosage”.
O=[N+]([O-])[O-].[Na+] [nitrate, sodium nitrate] was tested, and the “effect on sulfide concentration in the effluent” value (SRB consortia; injection of 2 PV CSBK-S with 85 ppm (1 mM) or 170 ppm (2 mM) nitrate) was “did not affect the sulfide concentration in the effluent”, the sulfate reduction (SRB consortia; injection of 2 PV of 340 ppm (4 mM) nitrate) was “inhibition of sulfate reduction was observed” and the “concentration that inhibited sulfate reduction / controlled souring when used singly” value (SRB consortia; oil as electron donor) was 340 ppm.
In the case of benzalkonium chloride [BAC], the “metabolic activity and growth of SRB” value (4PW SRB consortia) is reported as “not effective at this low dosage”.
With cocodiamine the “metabolic activity and growth of SRB” value (4PW SRB consortia) was “not effective at this low dosage”.
In the case of “tetrakishydroxymethyl phosphonium sulfate [THPS]”, the “metabolic activity and growth of SRB” value (4PW SRB consortia) is reported as “not effective at this low dosage”.
